The NIST ThermoML archive (doi:10.1016/j.fluid.2017.12.011)

Key:
[1] = Liquid, Ebulliometric method (Recirculating still)
[2] = Boiling temperature at pressure P; settings: Liquid, Ebulliometric method (Recirculating still)

Cc1cccc(C)c1O [2,6-dimethylphenol]
Settings	Boiling temperature at pressure P [°C]	vapor or sublimation pressure [kPa]
[1], 418.11 K	–	20
[2], 6.7 kPa	116.91	–
[2], 8.87 kPa	122.99	–
[2], 10.89 kPa	128.28	–
[2], 12.74 kPa	132.49	–
[2], 14.98 kPa	136.82	–
[2], 16.8 kPa	140.18	–
[2], 18.91 kPa	143.50	–
[2], 20 kPa	144.96	–
[2], 21.02 kPa	146.28	–
[2], 22.83 kPa	148.86	–
[2], 33.02 kPa	163.40	–
[2], 35.64 kPa	165.8	–

Cc1ccccc1O [2-methylphenol]
Settings	Boiling temperature at pressure P [°C]	vapor or sublimation pressure [kPa]
[1], 411.26 K	–	20
[2], 20 kPa	138.11	–

Cc1cccc(O)c1 [3-methylphenol]
Settings	Boiling temperature at pressure P [°C]	vapor or sublimation pressure [kPa]
[1], 422.16 K	–	20
[1], 422.28 K	–	20
[2], 9.29 kPa	129.09	–
[2], 11.93 kPa	135.40	–
[2], 14.57 kPa	140.24	–
[2], 16.68 kPa	144.32	–
[2], 18.79 kPa	147.39	–
[2], 20 kPa	149.01	–
[2], 20.91 kPa	150.40	–
[2], 23.02 kPa	152.89	–
[2], 25.13 kPa	155.41	–
